First the molecules themselves.
B2: GST-tagged recombinant CIB1 (calcium- and integrin-binding protein 1) (natural protein)
chain: SKELLAEYQDLTFLTKQEILLAHRRFCELLPQEQRSVESSLRAQVPFEQILSLPELKANPFKERICRVFSTSPAKDSLSFEDFLDLLSVFSDTATPDIKSHYAFRIFDFDDDGTLNREDLSRLVNCLTGEGEDTRLSASEMKQLIDNILEESDIDRDGTINLSEFQHVISRSPDFASSFKIVL
notes: Printed molecular weight of GST-CIB1 is 48 kDa against 26 kDa for GST alone, which would fit whole CIB1 (surmised); Vector family pGEX-4T is named for the empty vector; also called GST-CIB1; CIB1-GST
B3: FITC-labeled αIIb peptide from the cytoplasmic domain of integrin αIIb (peptide)
peptide: Ac-LVLAMWKVGFFKRNRK-{FITC′}
notes: integrin αIIb, stretch at the start of the cytoplasmic domain; last printed residue of the peptide; The C-terminal K probably carries the FITC (surmised); also called F-αIIb; F-αIIb peptide; source: synthetic peptide (custom synthesized, Peptide 2.0, purity 95.83%)

Series [1] addresses T1, CIB1-(His)6 : F-αIIb peptide (Homo sapiens, UniProt Q99828).
T1 construct: made in house
T1 sequence (Q99828 1-191): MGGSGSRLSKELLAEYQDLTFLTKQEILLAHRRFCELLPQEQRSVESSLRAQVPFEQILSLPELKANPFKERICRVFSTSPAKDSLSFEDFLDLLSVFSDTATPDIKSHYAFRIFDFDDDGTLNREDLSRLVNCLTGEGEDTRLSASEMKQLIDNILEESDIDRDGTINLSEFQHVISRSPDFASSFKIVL
Description: MST competitive binding study. The procedure: We sought to resolve this discrepancy by performing a competition binding study similar to the conditions of the FP HTS assay by utilizing the F-αIIb probe.
Figure 4 MST competitive binding assay. We selected 200 nM F-αIIb and a CIB1 concentration of 4 μM and tested both compounds. […] Panel (B) highlights the concentration range in which we observe different activities between the two compounds.
The binding affinity of the compounds to the CIB1-(His)6 protein in the presence of αIIb peptide was evaluated using FITC-labeled αIIb as well. Following manufacturer’s recommendation,[66] we first determined a minimum concentration of F-αIIb by performing a titration of the fluorophore (1 μM, 1:2, 8-points; final concentration range of 7.8 nM to 1 μM) in a 10 μL assay volume. Solutions were placed in standard capillaries and evaluated for the fluorescent signal using the Monolith NT.115 instrument. […] CIB1-(His)6 protein was titrated in a 2-fold dilution series (16-points, final concentration range of 15 nM to 500 μM), at a final volume of 12.5 μL. An equal volume of [2×] […] Solutions were placed in standard capillaries, incubated for approximately 1 h, and evaluated for a fluorescent signal with 50% LED excitation power, 20, 40, or 60% MST power (low, medium, high, respectively), MST on-time of 30 s, and off-time of 5 s.
Compounds were titrated in a 2-fold dilution series (16 points, final concentration range of 6.1 nM to 200 μM) and mixed with an equal volume CIB1-(His)6 protein and F-αIIb peptide (final concentrations of 4 μM and 200 nM, respectively). Solutions were incubated for 1 h at RT, then placed in standard capillaries, and evaluated for fluorescent signal (in triplicate) at the following parameters: 50% LED excitation power, 40% MST power, MST on-time of 30 s, and off-time of 5 s using Monolith NT.115 instrument. Dissociation constant (Kd) values were calculated by fitting the thermophoresis signal at 20 s of the thermograph using the MO Affinity Analysis software (Nanotemper Technologies, Munich, Germany) and confirmed using Graphpad Prism 7.

Series [2] has as its target T2, CIB1 and αIIb interaction (CIB1-GST : F-αIIb peptide) (Homo sapiens, UniProt Q99828).
T2 construct: made in house; host or cells: BL-21 plus RIL cells (E. coli)
T2 sequence (Q99828 1-191): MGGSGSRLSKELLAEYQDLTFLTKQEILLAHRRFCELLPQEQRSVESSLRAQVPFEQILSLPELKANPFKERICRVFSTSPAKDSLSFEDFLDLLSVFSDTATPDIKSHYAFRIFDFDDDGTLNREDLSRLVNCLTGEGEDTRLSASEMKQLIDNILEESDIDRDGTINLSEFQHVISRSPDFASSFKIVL
Put plainly: FP assay, 1536-well qHTS format (primary and confirmatory screen). As to conditions: over the concentration range tested. It is filed as binding. (qHTS replaces the single test concentration by a dilution series.)

Series [3] is described as follows: In vitro ADME: solubility. It is filed as physicochemical. As to conditions: read-out: Solubility.
Series [4] can be described thus: In vitro ADME: PAMPA permeability.
A further series deals with T3, CIB1-(His)6 (Homo sapiens, UniProt Q99828).
T3 construct: made in house
T3 sequence (Q99828 1-191): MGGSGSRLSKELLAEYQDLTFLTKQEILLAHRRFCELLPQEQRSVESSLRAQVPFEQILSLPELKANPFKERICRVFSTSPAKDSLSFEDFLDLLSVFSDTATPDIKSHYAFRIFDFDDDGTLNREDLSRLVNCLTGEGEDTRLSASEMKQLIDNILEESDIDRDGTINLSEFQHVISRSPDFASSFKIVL
Put plainly: Microscale thermophoresis (MST) protein and small-molecule binding. The protocol:
Determining a direct measurement of a molecule’s binding interaction with its target is a vital parameter for characterizing a chemical probe. We employed microscale thermophoresis (MST) for this purpose, leveraging its sensitivity and capacity to deliver quantitative data on the binding interaction.[35] […] We began by testing increasing amounts of the compound(s) and incubating them with the fluorescently labeled CIB1-(His)6, followed by the detection of the MST traces on the NT automated instrument (for more details see Materials and Methods Section). […] We were able to rule out compound interference with the histidine tag on CIB1 and/or the fluorophore used for the MST assay by testing the compounds with a fluorescently labeled hexa-histidine peptide (Figure S8B).
The binding affinity of the compounds to the CIB1-(His)6 protein was evaluated using microscale thermophoresis (MST). The recombinant protein was labeled with a fluorophore using Monolith His-tag labeling RED-tris-NTA second Generation kit (Nanotemper Technologies, Munich, Germany) following the manufacturer’s protocol. Compounds were titrated in a 2-fold dilution series (16 points, final concentration range of 6.1 nM to 200 μM) and incubated with the same volume of 50 nM (final concentration; 25 nM RED-tris-NTA) labeled recombinant protein for 30 min at RT (20 μL final assay volume). […] The dissociation constant (Kd) values were calculated by fitting the thermophoresis signal at 20 s of the thermograph using the MO Affinity Analysis software (Nanotemper Technologies, Munich, Germany) and confirmed using GraphPad Prism.
On the technique in general: In MST a laser heats a spot of the sample, and binding alters the fluorescence response.

The test system of the next series is washed human platelets. Put plainly: Human platelet aggregation assay (thrombin-induced). Format: cell-based. As to conditions: for inhibition at 10 µM: Homo sapiens, Platelet, single concentration of 10 μM (n = 3), thrombin; for Thrombin Assay 10 µM (%): platelet aggregation inhibition at 10 µM. The gist of the method:
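Washed platelets (2 × 10^8/mL) from citrated blood of healthy volunteers, pretreated 30 min at 37 °C with compound or DMSO vehicle, then activated with 0.03 U/mL thrombin. Aggregation traces recorded by aggregometry; P-selectin (CD62P) exposure measured by flow cytometry.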

Series [5] concerns the target T4, CIB1 and αIIb interaction (GST-CIB1 : F-αIIb peptide) (Homo sapiens, UniProt Q99828).
T4 construct: made in house; host or cells: BL-21 plus RIL cells (E. coli)
T4 sequence (Q99828 1-191): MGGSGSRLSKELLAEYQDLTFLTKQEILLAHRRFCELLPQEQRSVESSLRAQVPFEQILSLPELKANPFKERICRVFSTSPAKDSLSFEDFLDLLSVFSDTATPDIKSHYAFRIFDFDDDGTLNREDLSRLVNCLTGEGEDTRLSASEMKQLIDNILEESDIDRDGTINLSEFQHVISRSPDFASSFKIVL
Put plainly: FP assay, 384-well format (screen). Format: binding.

Series [6] can be described thus: In vitro ADME: RLM stability. Conditions: rat liver microsomes; read-out: Rat Liver Microsome Stability (t1/2). Background: Liver microsomes are vesicles of endoplasmic reticulum, rich in cytochrome P450 enzymes.
For series [7], the target named is T4, CIB1 and αIIb interaction (GST-CIB1 : F-αIIb peptide). Put plainly: FP assay, 96-well format (assay development). Format: binding. As to conditions: GST-CIB1 1 μM, F-αIIb peptide 100 nM, pre-incubated 1 h, read-out: half maximal inhibitory concentration (IC50).
The target of series [8] is B2. Description: fluorescence polarisation; competition, 384-well plate; GST-CIB1 1 or 2 μM, F-αIIb 50 nM, unlabeled αIIb peptide 16-point 1:2 dilution (3.05 nM to 100 μM), points >25 μM excluded; room temperature, 1 h. As to conditions: both partners purified.
For series [9], the target named is B2. Conditions: both partners purified.
Series [10] concerns the target T5, F-scrambled αIIb-peptide (FITC-labeled scrambled control peptide).
T5 construct: scrambled order of the αIIb peptide's residues; also called labeled scrambled-peptide; scrambled peptide; source: synthetic peptide (custom synthesized, Peptide 2.0, purity 95.37%)
T5 peptide: Ac-RKLFVKVMFWRLNGAK-{FITC″}
Conditions: both partners purified.

For series [11], the target named is B3. As to conditions: both partners purified.
The target in a further series is T6, CIB1-(His)6 protein (UniProt Q99828 9-191).
T6 construct: source: purified using a Ni-NTA resin column
T6 sequence: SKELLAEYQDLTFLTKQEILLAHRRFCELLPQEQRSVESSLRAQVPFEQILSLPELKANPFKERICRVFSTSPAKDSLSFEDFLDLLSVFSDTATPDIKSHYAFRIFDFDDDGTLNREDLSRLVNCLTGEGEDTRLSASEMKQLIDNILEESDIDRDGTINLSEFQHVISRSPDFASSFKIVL
Put plainly: MST; 200 nM F-αIIb with CIB1-(His)6 titrated 15 nM to 500 μM (16 points); about 1 h; medium (40%) MST power, Monolith NT.115. As to conditions: both partners purified.

Values after ≈ are worked out from the molar mass of the structure shown. Values joined by “and” are separate entries in the source; they are usually repeats but may differ in a detail not shown here. Identical values can stand only once. Like-named read-outs stand apart in the source and are kept apart here. Primed or numbered codes have the meaning given here. Where no end group is shown, it is not given here. FITC″ = fluorescein isothiocyanate label; FITC′ = not defined here

As usually defined, the EC50 is the concentration that produces a half-maximal response. A word on the solubility: it is how much of the substance goes into solution per volume. In general, Papp refers to a coefficient for how fast a substance crosses the barrier. A low value points to poor permeation. A word on the Kd: it is a measure of binding affinity in units of concentration. In general, inhibition refers to the relative decrease from the control value, in per cent. A high value points to a response far below the control. `O=C(c1ccc(-c2ccccc2)cc1)c1no[n+]([O-])c1C(=O)c1ccc(-c2ccccc2)cc1` [NCGC00351154-01] returned a half-maximal effective concentration (EC50) in [1] (200 nM F-αIIb, 4 μM CIB1-(His)6, n = 3/concentration) of 29 µM. For the same molecule, the “difference between the two compounds (EC50)” value in series [1] (NCGC00351154 vs NCGC00351170) came out at 13.8 fold. In addition, the “activity in the qHTS assay” value in series [2] was “inactive”. The solubility in series [3] stood at 1 µg/mL (≈ 2.24 µM). In series [4], this molecule registered a Papp of less than 3 ×10⁻⁶ cm/s. The dissociation constant Kd on CIB1-(His)6 (MST, fluorescently labeled CIB1-(His)6 50 nM, read-out: equilibrium dissociation constant (Kd)) worked out at 6.7 µM. At CIB1-(His)6 (NCGC00351154 vs NCGC00351170 Kd), the “difference in binding affinity” value worked out at 2.3 fold. Further, in the series with washed human platelets, the inhibition at 10 µM was determined as 16% and the “Thrombin Assay 10 µM (%)” value was determined as 16%.
Consider `O=C(c1ccccc1C(F)(F)F)c1no[n+]([O-])c1C(=O)c1ccccc1C(F)(F)F` [NCGC00351167-01], for which the IC50 in series [5] (384-well FP assay, Table 1, read-out: FP assay IC50) was determined as 6.68 µM. Moreover, the solubility in series [3] was less than 1 µg/mL. The same molecule registered an apparent permeability coefficient (Papp) in [4] of less than 12.4 ×10⁻⁶ cm/s. Also, in [6], the half-life was 2.34 min. In the series with washed human platelets, the inhibition at 10 µM was found to be 84% and the “Thrombin Assay 10 µM (%)” value was determined as 84%.
With “Ac-LVLAMWKVGFFKRNRK [unlabeled αIIb peptide, reference compound]”, the IC50 was ~2.7 µM and ~3 µM in [5] (384-well, F-αIIb 50 nM, GST-CIB1 1 or 2 μM, RT 1 h, read-out: IC50); 11.2 µM in series [7].

B1: unlabeled αIIb peptide (peptide)
peptide: Ac-LVLAMWKVGFFKRNRK
notes: integrin αIIb, stretch at the start of the cytoplasmic domain; last printed residue of the peptide; also called unlabeled peptide; source: synthetic peptide (custom synthesized, Peptide 2.0, purity >95.00%)
With B1, the IC50 is approximately 2.7 µM in series [8]; ~12 µM and 8.6 µM in series [9].
Regarding B2, the EC50 was 1.6 µM in series [10] and approximately 0.2 µM in series [11].
As for B3, in the series with CIB1-(His)6 protein, the dissociation constant (Kd) came out at 2.6 µM.
